Values of other authors, collected in patent publication US20120269803A1, “SUBSTITUTED BENZOSULPHONAMIDES” (BAYER INTELLECTUAL PROPERTY GMBH, priority 2009, published 2012).

Tests used:
[1] = phase I/II clinical trials in humans, literature [19]
MEK1/2 = MEK1/2 inhibitor, literature [17]
colon cancer = conditions: oral treatment, mouse models, literature [18]

In the case of O=C(NOCC1CC1)c1ccc(F)c(F)c1Nc1ccc(I)cc1Cl [PD184352], the clinical efficacy [1] is given as “insufficient efficacy”, the IC50 (MEK1/2) is given as “low nanomolar range” and the “colon cancer growth in vivo” value (colon cancer) is given as “inhibit colon cancer growth in vivo”.
